The results in this text go back to patent publication US20240279232A1, “USE OF SUBSTITUTED 5-(4-METHYL-6-PHENYL-4H-BENZO[F]IMIDAZO[1,5-A][1,4] DIAZEPIN-3-YL)-1,2,4-O[…] THE TREATMENT OF INFLAMMATORY CONDITIONS” (priority 2021, published 2024).

pKi: −log10 of the molar value.

The target of one assay is T1, DOR (δ opioid receptor) (Homo sapiens, UniProt P41143).
T1 construct: expressed in transfected cells; host or cells: HEK293
The assay can be described thus: DOR radioligand binding ([3H]-DADLE, HEK293 cell homogenates). To be noted: Percent inhibition at 10,000 nM; [3H]-DADLE. As for the experimental part:
(§1) Radioligand binding assays. Detailed protocols for the primary and secondary radioligand binding assays can be found in the National Institute of Mental Health's Psychoactive Drug Screening Program (NIMH PDSP) Assay Protocol Book (Roth, 2018). Briefly, primary and secondary radioligand binding assays are carried out in a final of volume of 125 μL per well in appropriate binding buffer. […] Total binding and nonspecific binding are determined in the absence and presence of 10 μM of appropriate reference compound (Naltrindole DOR, Salvinorin A KOR and DAMGO MOR). In brief, plates are usually incubated at room temperature and in the dark for 90 min. Reactions are stopped by vacuum filtration onto 0.3% polyethyleneimine (PEI) soaked 96-well filter mats using a 96-well Filtermate harvester, followed by three washes with cold PBS buffer. Scintillation cocktail is then melted onto the microwave-dried filters on a hot plate and radioactivity counted in a Microbeta counter. The data (n=6) were analyzed by nonlinear regression.
(§2) Ligand affinities were determined for KOR (κ opioid receptor), DOR (δ opioid receptor), and MOR (μ opioid receptor) using radioligand binding assays at a screening concentration of 10,000 nM. For these assays, cell homogenates from HEK293 cells that overexpressed KOR, MOR, and DOR were used in combination with [^3H]-U69593, [^3H]-DAMGO, and [^3H]-DADLE, respectively Compounds that exceeded more than 50% radioligand displacement were investigated further in concentration-dependent experiments to determine Ki values. Gamma aminobutyric acid type A receptor (GABAAR) binding was determined with rat brain homogenate and ^3H-flunitrazepam. Flunitrazepam binds GABAAR subtypes that consists of two α and two β subunits and one γ or δ subunit. Strong affinities to α1-3,5,6β1-3γ1-y/δ GABAARS have been reported for flunitrazepam. The […] GABAAR subtype expression in the brain includes 43% α1β2γ2, 15% α2β3γ2+8% α2βγ1, 10% α3β3γ2, 6% α4βγ/δ, 4% α5β3γ2, and 4% α6β2γ2/δ. Therefore, compounds with high affinity toward the synaptic benzodiazepine-sensitive receptors (BZR) predominately bind α1-3β2-3γ1-2 GABAARs. Alternatively, compounds with weak BZR binding might be selective for α4-6βγ/δ GABAARs.
(§3) Psychoactive Drug Screening Program. Detailed protocols for the primary and secondary radioligand binding assays can be found in the National Institute of Mental Health's Psychoactive Drug Screening Program (NIMH PDSP) Assay Protocol Book. Briefly, primary and secondary radioligand binding assays are carried out in a final of volume of 125 μL per well in appropriate binding buffer. The radioactive ligand concentration is close to the Kd. Total binding and nonspecific binding are determined in the absence and presence of 10 μM of appropriate reference compound, respectively. In brief, plates are usually incubated at room temperature and in the dark for 90 min. Reactions are stopped by vacuum filtration onto 0.3% polyethyleneimine (PEI) soaked 96-well filter mats using a 96-well Filtermate harvester, followed by three washes with cold PBS buffer. Scintillation cocktail is then melted onto the microwave-dried filters on a hot plate and radioactivity counted in a Microbeta counter. The data (n=6) were analyzed by nonlinear regression.

The test system of assay [1] is BZR (benzodiazepine site of GABAAR). The assay can be described thus: GABAAR/BZR binding, rat brain homogenate with 3H-flunitrazepam. To be noted: rat brain homogenate, 3H-flunitrazepam; for BZR %: Percent inhibition at 10,000 nM. The method, then: as §2, §3
In the next assay the target is T2, MOR (μ opioid receptor) (Homo sapiens, UniProt P35372).
T2 construct: expressed in transfected cells; host or cells: HEK293
T2 sequence (P35372 whole entry, species assumed): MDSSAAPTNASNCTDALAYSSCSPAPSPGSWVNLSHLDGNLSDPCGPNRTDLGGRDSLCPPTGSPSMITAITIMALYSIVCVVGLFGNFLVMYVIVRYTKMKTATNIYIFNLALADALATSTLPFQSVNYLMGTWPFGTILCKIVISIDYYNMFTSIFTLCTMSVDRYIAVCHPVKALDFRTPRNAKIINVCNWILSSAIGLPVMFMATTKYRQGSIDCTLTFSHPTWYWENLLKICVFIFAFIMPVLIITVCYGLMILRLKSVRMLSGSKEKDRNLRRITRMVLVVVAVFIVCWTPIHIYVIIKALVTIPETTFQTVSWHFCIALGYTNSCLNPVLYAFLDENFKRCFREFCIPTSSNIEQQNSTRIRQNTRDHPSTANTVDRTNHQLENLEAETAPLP
Nature of the assay: MOR radioligand binding ([3H]-DAMGO, HEK293 cell homogenates). The following applies: Percent inhibition at 10,000 nM; [3H]-DAMGO. The method, then:
as §1, §2, §3

For another assay, the target named is T3, KOR (κ opioid receptor) (Homo sapiens, UniProt P41145).
T3 construct: expressed in transfected cells; host or cells: HEK293 (stably transfected)
T3 sequence (P41145 whole entry): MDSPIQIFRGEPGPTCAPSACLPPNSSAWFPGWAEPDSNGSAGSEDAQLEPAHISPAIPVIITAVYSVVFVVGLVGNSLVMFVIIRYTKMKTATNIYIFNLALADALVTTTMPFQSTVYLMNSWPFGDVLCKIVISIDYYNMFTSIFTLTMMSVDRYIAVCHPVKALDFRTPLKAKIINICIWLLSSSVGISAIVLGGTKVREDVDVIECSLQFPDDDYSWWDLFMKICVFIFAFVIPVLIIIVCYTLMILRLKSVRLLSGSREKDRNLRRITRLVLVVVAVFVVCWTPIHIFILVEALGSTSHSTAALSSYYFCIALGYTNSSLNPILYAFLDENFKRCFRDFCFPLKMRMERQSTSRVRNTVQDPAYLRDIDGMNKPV
The assay can be described thus: KOR radioligand binding ([3H]-U69593, HEK293 cell homogenates). To be noted: [3H]-U69593; for inhibition at 10 µM: Percent inhibition at 10,000 nM; for pKi: concentration-dependent, read-out: KOR (Ki). The method, then:
as §1, §2, §3

T1 sequence (P41143 whole entry): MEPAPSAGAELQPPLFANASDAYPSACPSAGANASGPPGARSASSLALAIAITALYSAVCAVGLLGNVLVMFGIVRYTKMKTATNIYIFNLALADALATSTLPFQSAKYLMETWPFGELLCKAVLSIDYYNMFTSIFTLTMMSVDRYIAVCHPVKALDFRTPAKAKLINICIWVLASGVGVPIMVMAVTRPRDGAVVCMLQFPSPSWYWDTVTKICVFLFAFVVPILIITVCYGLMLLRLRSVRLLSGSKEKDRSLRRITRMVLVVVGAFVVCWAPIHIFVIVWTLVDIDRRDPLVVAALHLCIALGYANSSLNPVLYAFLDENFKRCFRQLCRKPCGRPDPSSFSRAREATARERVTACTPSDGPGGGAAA

For the compound `C#Cc1ccc2c(c1)C(c1ccccc1F)=NCc1c(-c3ocnc3C)ncn1-2` [KRM-III-65], the figures for the inhibition at 10 µM on DOR (δ opioid receptor), on MOR (μ opioid receptor) and at KOR (κ opioid receptor) were 16%, 0% and 64%, respectively. The BZR % in assay [1] was 96%. For the same compound, the pKi in assay [1] is 7.35; on KOR (κ opioid receptor), 6.06.

On to `C#Cc1ccc2c(c1)C(c1ccccn1)=NCc1c(-c3nc(C)no3)ncn1-2` [MP-III-085], for which the inhibition at 10 µM stood at 0% at DOR (δ opioid receptor), 0% on MOR (μ opioid receptor) and 40% at KOR (κ opioid receptor). Moreover, the BZR % in assay [1] is given as 82%. Also, the pKi in assay [1] was 6.45.

With `C#Cc1ccc2c(c1)C(c1ccccc1F)=N[C@H](C)c1c(C(=O)OCC)ncn1-2` [SH-053-2′F-R-CH3], the inhibition at 10 µM was 32% at DOR (δ opioid receptor), 28% on MOR (μ opioid receptor) and 89% at KOR (κ opioid receptor). Further, the BZR % in assay [1] is 85%. Further, the pKi in assay [1] is 6.42; on KOR (κ opioid receptor), 6.62.

Turning to `C#Cc1ccc2c(c1)C(c1ccccn1)=NCc1c(-c3ocnc3C)ncn1-2` [KRM-III-79], the values for the inhibition at 10 µM at DOR (δ opioid receptor), at MOR (μ opioid receptor) and at KOR (κ opioid receptor) were 1%, 32% and 9%, respectively. For the same compound, the BZR % in assay [1] worked out at 81%. Also, the pKi in assay [1] was 6.51.

`COC(=O)c1ncn2c1[C@@H](C)N=C(c1ccccc1F)c1cc(Br)ccc1-2` [MP-III-058]: the results for the inhibition at 10 µM on DOR (δ opioid receptor), on MOR (μ opioid receptor) and at KOR (κ opioid receptor) were 4%, 0% and 84%, respectively. The BZR % in assay [1] is on record as 86%. Moreover, the pKi in assay [1] is 6.54.

With `C#Cc1ccc2c(c1)C(c1ccccc1F)=N[C@H](C)c1c(C(=O)N(C)C)ncn1-2` [GL-II-73], the values for the inhibition at 10 µM at DOR (δ opioid receptor), at MOR (μ opioid receptor) and at KOR (κ opioid receptor) were 0%, 6% and 58%, respectively. Also, the BZR % in assay [1] stood at 75%. The pKi in assay [1] was 6.30; at KOR (κ opioid receptor), 5.92.

Take `C#Cc1ccc2c(c1)C(c1ccccc1F)=N[C@@H](C)c1c(C(=O)NCC)ncn1-2` [GL-I-43]: the inhibition at 10 µM on DOR (δ opioid receptor) was determined as 3%; on MOR (μ opioid receptor), 22%; on KOR (κ opioid receptor) it was 95%. Besides, the BZR % in assay [1] is given as 94%. Also, the pKi in assay [1] was 7.36; at KOR (κ opioid receptor), 6.99.

With `C#Cc1ccc2c(c1)C(c1ccccc1F)=N[C@@H](C)c1c(C(=O)NC)ncn1-2` [MP-II-023], the figures for the inhibition at 10 µM at DOR (δ opioid receptor), on MOR (μ opioid receptor) and at KOR (κ opioid receptor) were 16%, 0% and 91%, respectively. In addition, the BZR % in assay [1] turned out to be 97%. Also, the pKi was 7.43 in assay [1] and 6.92 on KOR (κ opioid receptor).

With `C#Cc1ccc2c(c1)C(c1ccccc1F)=N[C@@H](C)c1c(C(=O)NC(C)(C)C)ncn1-2` [GL-I-41], the inhibition at 10 µM on DOR (δ opioid receptor) turned out to be 10%; at MOR (μ opioid receptor) it was 40%; at KOR (κ opioid receptor), 97%. For the same compound, the BZR % in assay [1] was 90%. Moreover, the pKi in assay [1] was 6.85; on KOR (κ opioid receptor), 7.41.

For the compound `C#Cc1ccc2c(c1)C(c1ccccc1F)=N[C@H](C)c1c(C(=O)NC3CC3)ncn1-2` [GL-II-75], the inhibition at 10 µM came to 3% at DOR (δ opioid receptor), 0% on MOR (μ opioid receptor) and 81% at KOR (κ opioid receptor). The BZR % in assay [1] was determined as 85%. Besides, the pKi in assay [1] is 7.03; on KOR (κ opioid receptor), 6.56.

With `C#Cc1ccc2c(c1)C(c1ccccc1F)=N[C@@H](C)c1c(C(=O)NC3CC3)ncn1-2` [GL-I-55], the inhibition at 10 µM at DOR (δ opioid receptor) amounted to 24%; on MOR (μ opioid receptor), 17%; at KOR (κ opioid receptor), 93%. Moreover, the BZR % in assay [1] turned out to be 95%. Further, the pKi was 7.70 in assay [1] and 6.82 on KOR (κ opioid receptor).

As for `Fc1ccccc1C1=NCc2c(-c3cnco3)ncn2-c2ccc(Br)cc21` [SH-I-85], the inhibition at 10 µM turned out to be 33% at DOR (δ opioid receptor), 16% on MOR (μ opioid receptor) and 91% at KOR (κ opioid receptor). The BZR % in assay [1] is 99%. Also, the pKi in assay [1] was 7.96; at KOR (κ opioid receptor) it was 6.79.
